Source: PubChem BioAssay AID256 (DTP/NCI, 2004)
Inconclusive results and toxic doses are left out. How the source made its calls: active means survival T/C of 150% or more; inactive means T/C below 125% in these data.

Test system: CD2F1 mice, L1210 leukemia ip, survival T/C
Experiment: NCI In Vivo Anticancer Drug Screen. Data for tumor model L1210 Leukemia (intraperitoneal) in CD2F1 (CDF1) mice
Conditions: higher = longer survival
Outline: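 Tumor-bearing mice (transplanted tumor) were split into treated and vehicle control groups, and the measured endpoint of each treated group was divided by that of its vehicle controls.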

[1] = endpoint: mean survival time, dose: 100.0 mg/kg/injection, schedule: Q01DX001 (ip), vehicle: saline with Tween-80
[2] = endpoint: mean survival time, dose: 100.0 mg/kg/injection, schedule: Q01DX009 (ip), vehicle: saline with Tween-80
[3] = endpoint: mean survival time, dose: 200.0 mg/kg/injection, schedule: Q01DX001 (ip), vehicle: saline with Tween-80
[4] = endpoint: mean survival time, dose: 200.0 mg/kg/injection, schedule: Q01DX009 (ip), vehicle: saline with Tween-80
[5] = endpoint: mean survival time, dose: 400.0 mg/kg/injection, schedule: Q01DX001 (ip), vehicle: saline with Tween-80
[6] = endpoint: mean survival time, dose: 400.0 mg/kg/injection, schedule: Q01DX009 (ip), vehicle: saline with Tween-80
[7] = endpoint: median survival time, dose: 12.5 mg/kg/injection, schedule: Q01DX005 (ip), vehicle: distilled water + Tween-80
[8] = endpoint: median survival time, dose: 25.0 mg/kg/injection, schedule: Q01DX005 (ip), vehicle: distilled water + Tween-80
[9] = endpoint: median survival time, dose: 50.0 mg/kg/injection, schedule: Q01DX005 (ip), vehicle: distilled water + Tween-80
[10] = endpoint: mean survival time, dose: 100.0 mg/kg/injection, schedule: Q04DX002 (ip), vehicle: saline with Tween-80
[11] = endpoint: mean survival time, dose: 200.0 mg/kg/injection, schedule: Q04DX002 (ip), vehicle: saline with Tween-80
[12] = endpoint: mean survival time, dose: 400.0 mg/kg/injection, schedule: Q04DX002 (ip), vehicle: saline with Tween-80
[13] = endpoint: mean survival time, dose: 100.0 mg/kg/injection, schedule: Q04DX003 (ip), vehicle: saline with Tween-80
[14] = endpoint: mean survival time, dose: 200.0 mg/kg/injection, schedule: Q04DX003 (ip), vehicle: saline with Tween-80
[15] = endpoint: mean survival time, dose: 400.0 mg/kg/injection, schedule: Q04DX003 (ip), vehicle: saline with Tween-80

Measured: T/C

CCc1c(Br)c(CC)c(CC)c(Br)c1CC
inactive: [1] 105 % of control | [2] 104 % of control | [3] 95 % of control | [4] 101 % of control | [5] 103 % of control | [6] 96 % of control

CCC(=O)NCCc1ccccc1
inactive: [2] 100 % of control | [3] 97 % of control | [4] 100 % of control | [5] 97 % of control

CO/N=C/[C@@H](CO)O[C@H](/C=N/OC)n1cnc2c(N)ncnc21
inactive: [7] 97 % of control | [8] 100 % of control | [9] 97 % of control | endpoint: median survival time, dose: 100.0 mg/kg/injection, schedule: Q01DX005 (ip), vehicle: distilled water + Tween-80 96 % of control | endpoint: median survival time, dose: 200.0 mg/kg/injection, schedule: Q01DX005 (ip), vehicle: distilled water + Tween-80 100 % of control

CO[C@@]12[C@@H]3N[C@@H]3CN1C1=C(C(=O)C(Nc3ccc(S)cc3)=C(C)C1=O)[C@@H]2COC(N)=O
inactive: endpoint: mean survival time, dose: 1.5 mg/kg/injection, schedule: Q01DX001 (ip), vehicle: water 108 % of control | endpoint: mean survival time, dose: 3.0 mg/kg/injection, schedule: Q01DX001 (ip), vehicle: water 104 % of control | endpoint: mean survival time, dose: 6.0 mg/kg/injection, schedule: Q01DX001 (ip), vehicle: water 97 % of control | endpoint: mean survival time, dose: 12.0 mg/kg/injection, schedule: Q01DX001 (ip), vehicle: water 98 % of control | endpoint: mean survival time, dose: 16.7 mg/kg/injection, schedule: Q01DX001 (ip), vehicle: distilled water + Tween-80 92 % of control | endpoint: mean survival time, dose: 24.0 mg/kg/injection, schedule: Q01DX001 (ip), vehicle: distilled water + Tween-80 102 % of control | endpoint: mean survival time, dose: 24.0 mg/kg/injection, schedule: Q01DX001 (ip), vehicle: water 98 % of control | endpoint: mean survival time, dose: 34.2 mg/kg/injection, schedule: Q01DX001 (ip), vehicle: distilled water + Tween-80 104 % of control | endpoint: mean survival time, dose: 48.9 mg/kg/injection, schedule: Q01DX001 (ip), vehicle: distilled water + Tween-80 96 % of control

CCOC(=O)CCCCSCCCCC(=O)OCC
inactive: [1] 100 % of control | [3] 105 % of control | [5] 101 % of control

CC[N+]1(C)C2CCC1CC(O)C2 (stereo not drawn)
inactive: endpoint: mean survival time, dose: 100.0 mg/kg/injection, schedule: Q04DX002 (ip), vehicle: saline 105 % of control | endpoint: mean survival time, dose: 200.0 mg/kg/injection, schedule: Q04DX002 (ip), vehicle: saline 102 % of control

OC1C=C(c2ccccc2)C(c2ccccc2)C(c2ccccc2)C1 (stereo not drawn)
inactive: [1] 89 % of control | [5] 101 % of control

COC(=O)C(CC(C)C)NC(=O)C(CSC(c1ccccc1)(c1ccccc1)c1ccccc1)NC(c1ccccc1)(c1ccccc1)c1ccccc1 (stereo not drawn)
inactive: endpoint: mean survival time, dose: 50.0 mg/kg/injection, schedule: Q01DX009 (ip), vehicle: saline 97 % of control | endpoint: mean survival time, dose: 100.0 mg/kg/injection, schedule: Q01DX009 (ip), vehicle: saline 97 % of control | endpoint: mean survival time, dose: 200.0 mg/kg/injection, schedule: Q01DX009 (ip), vehicle: saline 92 % of control | endpoint: mean survival time, dose: 400.0 mg/kg/injection, schedule: Q01DX009 (ip), vehicle: saline 97 % of control

CN(C)P1(N)=NP(N)(N(C)C)=NP(N)(N(C)C)=N1 (stereo not drawn)
inactive: endpoint: mean survival time, dose: 100.0 mg/kg/injection, schedule: Q04DX003 (ip), vehicle: saline 100 % of control | endpoint: mean survival time, dose: 200.0 mg/kg/injection, schedule: Q04DX003 (ip), vehicle: saline 94 % of control | endpoint: mean survival time, dose: 400.0 mg/kg/injection, schedule: Q04DX003 (ip), vehicle: saline 96 % of control

O=C(c1cccnc1)c1c[nH]c2ccccc12
inactive: [10] 101 % of control | [11] 97 % of control | [12] 97 % of control

CCCCOP(=O)(OCCCC)[O][Pb]([CH2]C)([CH2]C)[CH2]C
inactive: endpoint: mean survival time, dose: 6.25 mg/kg/injection, schedule: Q04DX003 (ip), vehicle: saline with Tween-80 97 % of control | endpoint: mean survival time, dose: 12.5 mg/kg/injection, schedule: Q04DX003 (ip), vehicle: saline with Tween-80 92 % of control

O=C(Nc1nccs1)c1ccc(Cl)cc1
inactive: endpoint: mean survival time, dose: 50.0 mg/kg/injection, schedule: Q01DX009 (ip), vehicle: saline with Tween-80 96 % of control | [2] 96 % of control | [4] 92 % of control

CC(C)(O)CCC1CC1CCC(C)(C)O (stereo not drawn)
inactive: [13] 97 % of control | [14] 89 % of control | [15] 97 % of control

Nc1nc(-c2cc(Br)ccc2N=NN2CCCC2)nc2ccc(Br)cc12
inactive: endpoint: mean survival time, dose: 100.0 mg/kg/injection, schedule: Q04DX002 (ip), vehicle: Klucel (hydroxypropylcellulose) (HPC) 95 % of control | endpoint: mean survival time, dose: 200.0 mg/kg/injection, schedule: Q04DX002 (ip), vehicle: Klucel (hydroxypropylcellulose) (HPC) 113 % of control | endpoint: mean survival time, dose: 400.0 mg/kg/injection, schedule: Q04DX002 (ip), vehicle: Klucel (hydroxypropylcellulose) (HPC) 98 % of control

CC(=O)OCC1OC(n2ncnc2CI)C(OC(C)=O)C(OC(C)=O)C1OC(C)=O (stereo not drawn)
inactive: [7] 105 % of control | [8] 105 % of control | [9] 96 % of control

COc1cc2c(cc1Oc1c(O)c(OC)cc3c1C(C)N(C)CC3)C(C)N(C)CC2 (stereo not drawn)
inactive: endpoint: mean survival time, dose: 75.0 mg/kg/injection, schedule: Q01DX001 (ip), vehicle: saline 101 % of control

CCCCC(C(=O)OCC)C(=O)c1ccccc1 (stereo not drawn) (tested in a mixture with another compound)
inactive: [13] 100 % of control

CCCCCC(C)C(C)=O (stereo not drawn)
inactive: [2] 101 % of control | [4] 106 % of control | [6] 92 % of control

CCOC(=O)c1ccc(NC(N)=S)cc1
inactive: endpoint: mean survival time, dose: 50.0 mg/kg/injection, schedule: Q01DX009 (ip), vehicle: other 98 % of control | endpoint: mean survival time, dose: 100.0 mg/kg/injection, schedule: Q01DX009 (ip), vehicle: other 95 % of control | endpoint: mean survival time, dose: 200.0 mg/kg/injection, schedule: Q01DX009 (ip), vehicle: other 95 % of control | endpoint: mean survival time, dose: 400.0 mg/kg/injection, schedule: Q01DX009 (ip), vehicle: other 91 % of control

Cc1ccc([Si](OO[Si](c2ccccc2)(c2ccccc2)c2ccc(C)cc2)(c2ccccc2)c2ccccc2)cc1
inactive: [2] 98 % of control | [13] 98 % of control | [4] 93 % of control | [14] 100 % of control | [6] 95 % of control | [15] 98 % of control

CCN(CC)C(=S)SCc1c(Cl)c(Cl)c(Cl)c(Cl)c1Cl
inactive: [10] 94 % of control | [11] 91 % of control | [12] 97 % of control

CNC(=O)/C(=C\c1ccccc1Cl)NC(C)=O
inactive: [1] 97 % of control | [3] 93 % of control | [5] 93 % of control

Oc1cc2ccc3c(c2cc1O)CCc1cn[nH]c1-3
inactive: endpoint: mean survival time, dose: 25.0 mg/kg/injection, schedule: Q01DX001 (ip), vehicle: saline with Tween-80 104 % of control | endpoint: mean survival time, dose: 50.0 mg/kg/injection, schedule: Q01DX001 (ip), vehicle: saline with Tween-80 111 % of control | [1] 92 % of control

Cc1ccc(S(=O)(=O)N2CCn3ncc(C#N)c32)cc1
inactive: endpoint: mean survival time, dose: 12.5 mg/kg/injection, schedule: Q01DX009 (ip), vehicle: Klucel (hydroxypropylcellulose) (HPC) 98 % of control | endpoint: mean survival time, dose: 25.0 mg/kg/injection, schedule: Q01DX009 (ip), vehicle: Klucel (hydroxypropylcellulose) (HPC) 95 % of control | endpoint: mean survival time, dose: 50.0 mg/kg/injection, schedule: Q01DX009 (ip), vehicle: Klucel (hydroxypropylcellulose) (HPC) 97 % of control | endpoint: mean survival time, dose: 100.0 mg/kg/injection, schedule: Q01DX009 (ip), vehicle: Klucel (hydroxypropylcellulose) (HPC) 87 % of control | endpoint: mean survival time, dose: 200.0 mg/kg/injection, schedule: Q01DX009 (ip), vehicle: Klucel (hydroxypropylcellulose) (HPC) 89 % of control | endpoint: mean survival time, dose: 400.0 mg/kg/injection, schedule: Q01DX009 (ip), vehicle: Klucel (hydroxypropylcellulose) (HPC) 95 % of control

CNC(=S)SC1=NS(=O)(=O)c2ccccc2N1
inactive: endpoint: median survival time, dose: 25.0 mg/kg/injection, schedule: Q01DX005 (ip), vehicle: Klucel (hydroxypropylcellulose) (HPC) 106 % of control | endpoint: median survival time, dose: 50.0 mg/kg/injection, schedule: Q01DX005 (ip), vehicle: Klucel (hydroxypropylcellulose) (HPC) 101 % of control | endpoint: median survival time, dose: 100.0 mg/kg/injection, schedule: Q01DX005 (ip), vehicle: Klucel (hydroxypropylcellulose) (HPC) 108 % of control | endpoint: median survival time, dose: 144.0 mg/kg/injection, schedule: Q01DX005 (ip), vehicle: Klucel (hydroxypropylcellulose) (HPC) 113 % of control | endpoint: median survival time, dose: 200.0 mg/kg/injection, schedule: Q01DX005 (ip), vehicle: Klucel (hydroxypropylcellulose) (HPC) 118 % of control

COc1ccc(C)c2nc3ccccc3nc12
inactive: [1] 98 % of control | [3] 97 % of control | [5] 98 % of control
